One may read the IC50 as the concentration at which inhibition is half-maximal.

The assay deals with TrkA kinase (Homo sapiens, UniProt P04629). The assay can be described thus: TrkA kinase biochemical activity assay (AlphaScreen). The settings on record: 100 μM ATP; read-out: Biochemical Inhibition IC50 TrkA. In short, it runs like this:
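IC50 values come from AlphaScreen PY20/streptavidin bead signal versus compound concentration. Kinase reaction: 1 ng/well TrkA, 100 μM ATP, 30 nM biotin-(E4Y)10 substrate, Mn2+-containing Hepes buffer pH 7.5, 5% DMSO, 40 min, room temperature; TrkC assayed by the same approach.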
On the technique in general: In Alpha technology, singlet oxygen from a donor bead excites a nearby acceptor bead.

A value given as a limit tells only on which side of the number the result lay.

Chain of TrkA kinase (P04629 33-796): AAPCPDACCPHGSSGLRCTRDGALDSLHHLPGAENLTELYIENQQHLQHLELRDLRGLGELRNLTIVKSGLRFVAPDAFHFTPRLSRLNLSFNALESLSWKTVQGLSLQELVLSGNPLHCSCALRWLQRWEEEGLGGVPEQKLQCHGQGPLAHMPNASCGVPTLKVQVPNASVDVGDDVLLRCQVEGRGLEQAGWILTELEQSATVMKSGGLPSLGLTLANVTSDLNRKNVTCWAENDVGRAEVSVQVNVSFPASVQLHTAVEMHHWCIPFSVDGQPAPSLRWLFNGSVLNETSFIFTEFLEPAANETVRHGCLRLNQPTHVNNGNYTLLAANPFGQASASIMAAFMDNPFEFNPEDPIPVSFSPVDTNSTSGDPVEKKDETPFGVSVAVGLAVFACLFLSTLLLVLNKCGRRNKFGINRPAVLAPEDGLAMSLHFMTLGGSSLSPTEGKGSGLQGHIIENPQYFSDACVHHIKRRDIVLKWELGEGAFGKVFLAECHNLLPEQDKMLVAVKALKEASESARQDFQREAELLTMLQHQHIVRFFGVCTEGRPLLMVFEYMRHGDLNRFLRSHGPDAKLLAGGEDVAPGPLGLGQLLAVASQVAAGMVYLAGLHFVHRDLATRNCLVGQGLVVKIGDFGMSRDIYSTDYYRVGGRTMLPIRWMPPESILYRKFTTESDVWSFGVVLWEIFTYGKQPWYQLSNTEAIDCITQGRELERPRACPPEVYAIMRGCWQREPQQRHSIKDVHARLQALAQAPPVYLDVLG

For `Cc1cnc2[nH]cc(Cc3cnc(Nc4ccc(C(O)(C(F)(F)F)C(F)(F)F)cc4)nc3)c2c1` [Compound P-3031, 1,1,1,3,3,3-Hexafluoro-2-{4-[5-(5-methyl-1H-pyrrolo[2,3-b]pyridin-3-ylmethyl)-pyrimidin-2-ylamino]-phenyl}-propan-2-ol], the IC50 is less than 100 nM.

Take `Cc1cnc2[nH]cc(Cc3cnc(Nc4ccc(S(C)(=O)=O)cc4)nc3)c2c1` [Compound P-3034, (4-Methanesulfonyl-phenyl)-[5-(5-methyl-1H-pyrrolo[2,3-b]pyridin-3-ylmethyl)-pyrimidin-2-yl]-amine]: the IC50 was less than 1000 nM.

Consider `O=C(c1ccc(Nc2ccc(C3CC3)nc2)nc1F)c1c[nH]c2ncccc12` [Compound P-3052, [6-(6-Cyclopropyl-pyridin-3-ylamino)-2-fluoro-pyridin-3-yl]-(1H-pyrrolo[2,3-b]pyridin-3-yl)-methanone], for which the IC50 is less than 10 nM.

`CSc1ccc(Nc2ncc(Cc3c[nH]c4ncc(C)cc34)cn2)cc1` [Compound P-3033, [5-(5-Methyl-1H-pyrrolo[2,3-b]pyridin-3-ylmethyl)-pyrimidin-2-yl]-(4-methylsulfanyl-phenyl)-amine]: the IC50 was less than 10 nM.

Turning to `Cc1cnc2[nH]cc(Cc3cnc(Nc4cc(C(C)(C)C)n[nH]4)nc3)c2c1` [Compound P-3029, (5-tert-Butyl-2H-pyrazol-3-yl)-[5-(5-methyl-1H-pyrrolo[2,3-b]pyridin-3-ylmethyl)-pyrimidin-2-yl]-amine], the IC50 is less than 1000 nM.

For the compound `CCc1ccc(Nc2ccc(Cc3c[nH]c4ncc(C)cc34)c(F)n2)cn1` [Compound P-3048, (6-Ethyl-pyridin-3-yl)-[6-fluoro-5-(5-methyl-1H-pyrrolo[2,3-b]pyridin-3-ylmethyl)-pyridin-2-yl]-amine], the IC50 was less than 10 nM.

As for `CCc1ccc(Nc2ccc(C(=O)c3c[nH]c4ncc(C)cc34)c(F)n2)cn1` [Compound P-3049, [6-(6-Ethyl-pyridin-3-ylamino)-2-fluoro-pyridin-3-yl]-(5-methyl-1H-pyrrolo[2,3-b]pyridin-3-yl)-methanone], the IC50 is less than 10 nM.

`Cc1cncc(Nc2ccc(C(=O)c3c[nH]c4ncnc(C5CC5)c34)c(F)n2)c1` [Compound P-4039, (4-Cyclopropyl-7H-pyrrolo[2,3-d]pyrimidin-5-yl)-[2-fluoro-6-(5-methyl-pyridin-3-ylamino)-pyridin-3-yl]-methanone]: the IC50 was less than 100 nM.

Turning to `Cc1cnc2[nH]cc(Cc3ccc(Nc4ccc(C5CC5)nc4)nc3F)c2c1` [Compound P-3050, (6-Cyclopropyl-pyridin-3-yl)-[6-fluoro-5-(5-methyl-1H-pyrrolo[2,3-b]pyridin-3-ylmethyl)-pyridin-2-yl]-amine], the IC50 is less than 100 nM.

With `Cc1cnc2[nH]cc(Cc3cnc(Nc4cc(-c5ccc(F)cc5)n[nH]4)nc3)c2c1` [Compound P-3028, [5-(4-Fluoro-phenyl)-2H-pyrazol-3-yl]-[5-(5-methyl-1H-pyrrolo[2,3-b]pyridin-3-ylmethyl)-pyrimidin-2-yl]-amine], the IC50 is less than 100 nM.

Regarding `Fc1nc(Nc2ccc(C3CC3)nc2)ccc1Cc1c[nH]c2ncccc12` [Compound P-3053, (6-Cyclopropyl-pyridin-3-yl)-[6-fluoro-5-(1H-pyrrolo[2,3-b]pyridin-3-ylmethyl)-pyridin-2-yl]-amine], the IC50 was less than 100 nM.

As to `Cc1cnc2[nH]cc(Cc3cnc(Nc4ccc(C(C)(C)C)cc4)nc3)c2c1` [Compound P-3030, (4-tert-Butyl-phenyl)-[5-(5-methyl-1H-pyrrolo[2,3-b]pyridin-3-ylmethyl)-pyrimidin-2-yl]-amine amine], the IC50 was less than 10 nM.

On to `Cc1cnc2[nH]cc(C(=O)c3ccc(Nc4ccc(C5CC5)nc4)nc3F)c2c1` [Compound P-3051, [6-(6-Cyclopropyl-pyridin-3-ylamino)-2-fluoro-pyridin-3-yl]-(5-methyl-1H-pyrrolo[2,3-b]pyridin-3-yl)-methanone], for which the IC50 is less than 10 nM.

As to `Fc1nc(NC2CCC(F)(F)CC2)ccc1Cc1c[nH]c2ncnc(NC3CC3)c12` [Compound P-4129, N-cyclopropyl-5-[[6-[(4,4-difluorocyclohexyl)amino]-2-fluoro-3-pyridyl]methyl]-7H-pyrrolo[2,3-d]pyrimidin-4-amine], the IC50 is less than 1000 nM.

With `Cc1cnc2[nH]cc(Cc3cnc(Nc4cc(C5CC5)n[nH]4)nc3)c2c1` [Compound P-3032, (5-Cyclopropyl-2H-pyrazol-3-yl)-[5-(5-methyl-1H-pyrrolo[2,3-b]pyridin-3-ylmethyl)-pyrimidin-2-yl]-amine], the IC50 was more than 1000 nM.

Take `Fc1nc(NC2CCC(F)(F)CC2)ccc1Cc1c[nH]c2ncnc(NCC(F)(F)F)c12` [Compound P-4128, 5-[[6-[(4,4-difluorocyclohexyl)amino]-2-fluoro-3-pyridyl]methyl]-N-(2,2,2-trifluoroethyl)-7H-pyrrolo[2,3-d]pyrimidin-4-amine]: the IC50 is less than 1000 nM.

For `Cc1cncc(Nc2ccc(Cc3c[nH]c4ncnc(C5CC5)c34)c(F)n2)c1` [Compound P-4038, [5-(4-Cyclopropyl-7H-pyrrolo[2,3-d]pyrimidin-5-ylmethyl)-6-fluoro-pyridin-2-yl]-(5-methyl-pyridin-3-yl)-amine], the IC50 is less than 100 nM.

In the case of `Fc1nc(Nc2ccc(C3CC3)nc2)ccc1Cc1c[nH]c2ncnc(NCC(F)(F)F)c12` [Compound P-4130, 5-[[6-[(6-cyclopropyl-3-pyridyl)amino]-2-fluoro-3-pyridyl]methyl]-N-(2,2,2-trifluoroethyl)-7H-pyrrolo[2,3-d]pyrimidin-4-amine], the IC50 is less than 10 nM.

For the compound `COc1ccc(Nc2ccc(Cc3c[nH]c4ncnc(C)c34)c(F)n2)cn1` [Compound P-4002, [6-Fluoro-5-(4-methyl-7H-pyrrolo[2,3-d]pyrimidin-5-ylmethyl)-pyridin-2-yl]-(6-methoxy-pyridin-3-yl)-amine], the IC50 was less than 100 nM.

The values above are taken from patent publication US8901118B2, “Compounds and methods for kinase modulation, and indications therefor” (Plexxikon Inc., priority 2010, dated 2014).
